Assay results from US9062050B2, “Inhibitor of JAK1 and JAK2” (Eli Lilly and Company, priority 2012, dated 2015).

Experiments:
JAK3 = molecular target: T1, JAK3 (Homo sapiens, UniProt P52333); assay: JAK LanthaScreen Kinase Assay (TR-FRET), JAK3; assay type: biochemical
T1 sequence (P52333 1-1124): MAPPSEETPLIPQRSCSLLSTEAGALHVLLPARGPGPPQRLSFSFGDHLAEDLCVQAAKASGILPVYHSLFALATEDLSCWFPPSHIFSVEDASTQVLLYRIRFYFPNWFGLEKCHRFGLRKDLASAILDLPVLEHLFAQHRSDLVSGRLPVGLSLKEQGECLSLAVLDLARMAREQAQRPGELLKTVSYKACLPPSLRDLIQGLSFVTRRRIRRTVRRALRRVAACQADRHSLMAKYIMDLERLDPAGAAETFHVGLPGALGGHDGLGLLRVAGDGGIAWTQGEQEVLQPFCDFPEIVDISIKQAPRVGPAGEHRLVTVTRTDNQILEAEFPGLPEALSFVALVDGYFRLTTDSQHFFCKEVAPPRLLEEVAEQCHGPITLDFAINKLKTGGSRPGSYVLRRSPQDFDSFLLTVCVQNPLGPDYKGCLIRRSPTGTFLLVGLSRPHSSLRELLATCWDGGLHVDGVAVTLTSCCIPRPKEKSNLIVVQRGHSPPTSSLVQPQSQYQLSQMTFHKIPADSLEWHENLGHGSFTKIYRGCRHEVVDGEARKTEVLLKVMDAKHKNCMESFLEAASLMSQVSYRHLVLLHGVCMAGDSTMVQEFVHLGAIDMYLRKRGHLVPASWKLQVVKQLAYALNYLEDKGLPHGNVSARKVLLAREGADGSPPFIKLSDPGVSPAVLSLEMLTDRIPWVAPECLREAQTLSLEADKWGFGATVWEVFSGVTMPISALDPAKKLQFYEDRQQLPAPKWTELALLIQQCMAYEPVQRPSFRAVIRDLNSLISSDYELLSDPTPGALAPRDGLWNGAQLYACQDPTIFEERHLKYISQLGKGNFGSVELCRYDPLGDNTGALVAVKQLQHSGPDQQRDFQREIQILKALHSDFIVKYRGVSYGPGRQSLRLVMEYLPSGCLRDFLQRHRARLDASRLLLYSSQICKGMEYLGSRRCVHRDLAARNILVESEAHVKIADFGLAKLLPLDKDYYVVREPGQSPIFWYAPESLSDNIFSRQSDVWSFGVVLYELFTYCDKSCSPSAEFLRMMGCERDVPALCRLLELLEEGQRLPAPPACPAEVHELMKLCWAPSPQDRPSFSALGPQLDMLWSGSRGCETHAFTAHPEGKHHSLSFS
Source text: The JAK LanthaScreen™ Kinase Assay (Life Technologies, #PV4844) is used to determine compound IC50 values against the JAK1, JAK2, and JAK3 kinases. This kinase assay is a Time Resolved Fluorescence Resonance Energy Transfer (TR-FRET) assay format that uses long-lifetime terbium (Tb) labeled antibody as the donor species and Green Fluorescent Protein-Signal Transducers and Activators of Transcription (GFP-STAT1) as the acceptor species.
The TR-FRET ratio is used to monitor JAK1, JAK2, or JAK3 activity where an increase in phosphorylation of the GFP-STAT1 results in an increase in the TR-FRET ratio. Perform the kinase reaction using a 12.5 microliter reaction volume in shallow black 384-well Proxiplate (PerkinElmer, #6008260). […] Incubate at room temperature for 90 minutes, and read in an EnVision plate reader (PerkinElmer, #2104-0010) with 340 nm wavelength excitation filter and emission filters of 520 nm and 495 nm wavelengths. The ratio is derived from the emission wavelength for the GFP-STAT1 which is measured at 520 nanometer versus the emission at 495 nanometer for the Tb-anti-pSTAT1[pTyr701]. Derive the IC50 value for the compound using percent inhibition data, which is calculated from the reaction data relative to on-plate controls (active enzyme versus 2.0 micromolar control-inhibited enzyme). […]

phosphorylation of STAT3 = assay: SUM-159-MSD-pSTAT3 cell-based assay; settings: SUM159; Sum-159 breast cancer cells, human IL-6 stimulated; read-out: IC50, inhibits the phosphorylation of STAT3
Description: The SUM-159-MSD-pSTAT3 cell-based assay is used to examine the potency of compounds at blocking STAT3 phosphorylation in breast cancer cells. Sum-159 cells (Asterand) are grown and maintained in HAM's F-12 medium (Gibco 11765-054) with 5% FBS, insulin (5 microgram/mL) and hydrocortisone (1 μg/ml). Cells are collected, counted, plated at 4×10^4 cells/well in 96-well plates, and cultured for overnight at 37° C. with 5% CO2. Culture medium is then removed and replaced with F-12-medium containing either vehicle (DMSO) alone or 2× final concentrations of compounds across a range from 0-20 μM at 1:3 dilutions (10 concentration points). After incubation for five additional hours, medium is removed and cells are treated with 100 microliters of 2× human IL-6 (20 ng/mL diluted in F-12 complete medium) and incubated for an additional 20 minutes at 37° C. in 5% CO2. […] The 96-well plates are sealed and then mixed for 2 minutes on an orbital shaker at room temperature, and then immediately frozen at −80° C. overnight. pSTAT3 is detected with the use of the MA6000 MSD Whole Cell Lysate Kit for Phospho-STAT-3 (Tyr 705) (Meso Scale Diagnostics, #K150DID-2) as described above. Plates are read by using a MSD plate reader. Data are analyzed using Graph Pad program.

Cc1cc(Nc2ccc3ncn([C@@H]4CCc5ccc(F)cc54)c3n2)[nH]n1.Cl.Cl [Example 1, 3-[(1R)-6-fluoro-2,3-dihydro-1H-inden-1-yl]-N-(3-methyl-1H-pyrazol-5-yl)-3H-imidazo[4,5-b]pyridin-5-amine dihydrochloride]
IC50 (JAK3; enzyme assay, 2 micromolar ATP, n=6, read-out: IC50 against JAK3): 0.008 µM
selectivity for JAK1 and JAK2 over JAK3 in the enzyme assays (JAK3; enzyme assays, JAK1 and JAK2 versus JAK3): greater than four-fold
IC50 (phosphorylation of STAT3): 0.021 µM
